The values below come from patent US11426472B2, “Fibroblast activation protein (FAP) targeted imaging and therapy in fibrosis” (Purdue Research Foundation, priority 2018, dated 2022).

Data set [1] has as its target T1, mouse FAP (Mus musculus, UniProt P97321).
T1 construct: NIH-3T3 cells were induced with TGFβ to express FAP; endogenous in cells; host or cells: NIH-3T3 mouse fibroblasts induced with TGFβ
T1 sequence (P97321 1-761): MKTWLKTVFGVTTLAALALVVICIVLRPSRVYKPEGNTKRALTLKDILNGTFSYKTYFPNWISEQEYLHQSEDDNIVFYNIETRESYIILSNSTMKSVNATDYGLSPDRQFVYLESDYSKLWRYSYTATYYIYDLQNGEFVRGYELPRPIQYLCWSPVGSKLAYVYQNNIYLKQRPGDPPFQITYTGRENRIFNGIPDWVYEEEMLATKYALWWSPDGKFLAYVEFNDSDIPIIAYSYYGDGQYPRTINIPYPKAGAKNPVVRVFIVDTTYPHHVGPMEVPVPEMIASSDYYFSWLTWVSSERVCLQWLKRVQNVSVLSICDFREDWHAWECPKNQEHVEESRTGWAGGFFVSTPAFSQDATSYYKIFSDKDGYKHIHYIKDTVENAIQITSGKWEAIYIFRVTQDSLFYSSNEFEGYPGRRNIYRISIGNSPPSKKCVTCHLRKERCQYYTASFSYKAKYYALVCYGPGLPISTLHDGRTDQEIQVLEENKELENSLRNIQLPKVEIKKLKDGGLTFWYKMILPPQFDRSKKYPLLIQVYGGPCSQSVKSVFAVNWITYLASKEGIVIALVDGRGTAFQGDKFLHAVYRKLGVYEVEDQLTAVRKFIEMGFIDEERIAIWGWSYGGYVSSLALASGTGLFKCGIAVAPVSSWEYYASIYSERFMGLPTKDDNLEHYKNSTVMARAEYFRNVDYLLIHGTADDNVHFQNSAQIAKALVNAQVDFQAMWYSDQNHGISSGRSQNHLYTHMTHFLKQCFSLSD
As to the kind of experiment: Binding of FAPL_FITC to TGFβ-induced NIH-3T3 cells. The class given is cell-based. An excerpt: FAPL-FITC targets mouse FAP in mouse fibroblast cells. Fluorescence binding affinity study of FAPL_FITC in HLF-hFAP cells. (C) Binding of FAPL_FITC to TGFb induced mouse NIH-3T3 cell line.
In this Example, we have shown that FAPL_FITC can recognize mouse FAP. Briefly, NIH-3T3 cells were induced with TGFβ to express FAP (mimicking the pathogenesis of fibrosis in mice). FAPL_FITC can recognize almost 98% of the cell population that binds to a specific monoclonal antibody against mouse FAP.

For data set [2], the target named is T2, human FAP (Homo sapiens, UniProt Q12884).
T2 construct: expressed in transfected cells; host or cells: HLF1 human lung fibroblast cell line transfected with FAP (HLF1-hFAP)
T2 sequence (Q12884 1-760): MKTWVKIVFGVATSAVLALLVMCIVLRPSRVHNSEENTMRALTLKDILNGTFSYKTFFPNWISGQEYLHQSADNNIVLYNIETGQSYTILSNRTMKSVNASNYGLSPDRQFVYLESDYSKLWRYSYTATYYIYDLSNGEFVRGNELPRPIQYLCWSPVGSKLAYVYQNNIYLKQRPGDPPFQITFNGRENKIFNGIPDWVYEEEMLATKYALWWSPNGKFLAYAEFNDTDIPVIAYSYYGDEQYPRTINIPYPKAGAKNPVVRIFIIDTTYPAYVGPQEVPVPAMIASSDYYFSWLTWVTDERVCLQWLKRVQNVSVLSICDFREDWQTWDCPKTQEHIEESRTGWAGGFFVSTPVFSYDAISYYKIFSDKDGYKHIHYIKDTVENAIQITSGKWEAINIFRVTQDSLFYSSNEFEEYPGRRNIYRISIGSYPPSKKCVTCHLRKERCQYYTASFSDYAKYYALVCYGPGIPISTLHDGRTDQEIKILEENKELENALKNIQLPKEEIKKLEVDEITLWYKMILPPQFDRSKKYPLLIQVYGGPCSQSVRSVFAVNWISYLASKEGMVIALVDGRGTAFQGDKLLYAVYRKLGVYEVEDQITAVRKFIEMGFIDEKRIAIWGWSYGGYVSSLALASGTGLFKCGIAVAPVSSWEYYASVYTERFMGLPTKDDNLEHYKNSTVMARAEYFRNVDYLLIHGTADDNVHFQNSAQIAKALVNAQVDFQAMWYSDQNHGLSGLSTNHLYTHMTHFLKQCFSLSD
As to the kind of experiment: Live cell imaging of FAP-FITC binding and internalization in HLF1-hFAP cells. The conditions noted are these: 10 nM. The class given is cell-based. As to the method: FAPL-FITC targets human FAP in HLF1 cells. A) Live cell imaging of FAPL-FITC internalization. confocal microscopy images of HLF1-hFAP cells incubated with FAPL-FITC (10 nM), FAP staining is shown in green. Spatial localization of FAPL-FITC in HLF1-hFAP cell line at 0 min (a), and at 30 min (d). Colocalization of FAP and endosomes: HLF1-hFAP cells incubated with FAPL-FITC followed by staining for endosomes (Rab7a-RFP; red) and nucleus (DRAQ5; blue). The merge of the 3 images is shown on the right (c, and f). Yellow indicated colocalization of FAP with endosomal markers.
HLF1-hFAP cells were seeded in the glass-bottom dish and incubated with adequate amount of endosomes tracker (Rab7a-RFP, ThermoFisher) for overnight. Then cells were incubated with FAP-FITC (10 nM) for 1 hour at 4° C. Followed by staining with […] DRAQ5 nucleus dye (ThermoFisher) and 3 times of PBS washes, spatial localization of FAP-FITC was monitor at given time under ambient temperature by confocal microscope (FV 1000, Olympus). Confocal images were further processed by FV10-ASW, Olympus software.

The subject of data set [3] is HLF-1 fibroblasts. As to the kind of experiment: Secreted collagen in HLF1 cells (Sirius Red staining). Format: cell-based, human. How it is done: (§1) PI3KI1 inhibits Akt phosphorylation, proliferation, collagen secretion and collagen gel contraction in HLF-1 fibroblasts. (A) PI3KI1 structure. (B) Confluent HLF-1 fibroblasts were stimulated with TGFβ (1 ng/mL) with indicated PI3KI1 or OMIPALISIB and lysates collected for Western blotting. […] Collagen 1 and αSMA expression was suppressed by 100 nM PI3KI1, but pSMAD2 was not affected by PI3K inhibitors. (C) MTT assay and Caspase 3 and 7 activity (Supplementary data) show PI3KI1 inhibited HLF-1 proliferation at >100 nM. (D) HLF-1 fibroblasts were stimulated with TGFβ (1 ng/mL) for 3 days and level of secreted collagen in culture medium was determined by Sirius Red staining. […] Data are analysis by t-test; *p<0.05, **p<0.01.
Confluent HLF1 cells were seeded in DMEM medium containing 10% FBS and then 0.4% serum starvation overnight before stimulation of collagen secretion. TGFb1 (0.1 ng/ml) were added into cells with or without PI3K inhibitors. At 2 days post co-incubation, culture medium was collected for determination of total secreted collagen level. Total collagen level was determined by Sirius Red Total Collagen Detection Kit (Chondrex, Inc). Basically, concentrated sample incubated with […] of Sirius Red Solution with for 20 minutes at room temperature. […] Add […] of Extraction Buffer to the Sirius Red stained pellet and read the OD at 510-550 nm.

Data set [4] deals with IPF fibroblasts. As to the kind of experiment: TGFβ-induced Collagen I in IPF patient fibroblasts (molecular crowding assay, high content imaging). The class given is cell-based, human. The conditions noted are these: for TGFβ-induced collagen production/secretion: IPF patient fibroblasts, TGFβ 1 ng/mL, 48 h. How it is done:
PI3KI1 and PI3KI1-FAPL suppressed TGFβ-induced collagen production in IPF fibroblasts. (B) Confluent IPF fibroblasts were stimulated for 48 h with TGFβ (1 ng/mL) with increasing concentrations of OMIPALISIB or PI3KI1 or PI3KI1-FAPL and Collagen I expression was assayed by molecular crowding assay with high content image analysis. Data are expressed as relative fluorescent intensity over TGFβ treated IPF fibroblasts (C) and cell counts obtained from DAPI counterstaining (D).

Data set [5] relates to bleomycin-induced lung fibrosis. As to the kind of experiment: Therapy in bleomycin-induced lung fibrosis model (survival, hydroxyproline). The class given is in vivo, mouse. The conditions noted are these: for survival: bleomycin-induced mice versus untreated/PBS control; for hydroxyproline/collagen in lung: bleomycin-induced mice, day 21, versus untreated/PBS control. The text has this: Therapy with FAP-a targeted Pi3K inhibitor in bleomycin treated mice. (A) Schematic representation of the experimental protocol for induction, treatment and examination of pulmonary fibrosis in a mouse model. (B) Survival probability of the FAPL_PI3KI1 treated mice over the saline control. (C) Hydroxyproline content (ug/lung) of control (saline), bleomycin treated with and without FAPL_PI3KI1 treatment at day 21. (D) Body weight change
8 to 10-week old C57BL/6-NCrl (Strain Code: 027) male mice (Charles River) were anesthetized (mixture of xylazine/ketamine), followed by a single intratracheal injection of freshly prepared 0.75 mg/Kg of bleomycin sulfate (Cayman Chemicals, Cat N13877) in 50 μL of sterile phosphate-buffered saline (PBS). Control mice were injected with 50 μL of sterile PBS. Body weights were monitored throughout the study. To access the FAP expression and fibrosis in the longitudinal study the lungs were harvested at Days 7, 14 and 21 post-bleomycin instillation. For the therapy with FAP-PI3K inhibitor, same procedure was carried out to administer bleomycin and the lungs were harvested at Day 21 to access the therapeutic efficacy (Day 0 was accounted as the day of bleomycin administration).
Total lung collagen was determined by analysis of hydroxyproline as previously described.^30 The right lung was consistently dedicated for this assay to allow comparison. Briefly, harvested right lung was homogenized in PBS (PH 7.4), digested with 12N HCl at 120° C. for 3 hr. Citrate/acetate buffer (PH 6.0) and Chloramine-T solution were added at room temperature for 20 minutes and the samples were incubated with Ehrlich's solution for 15 min at 65° C. Samples were cooled to room temperature and read at 550 nm. Hydroxyproline standards (Sigma, MO) at concentrations between 0 to 100 μg/ml were used to construct a standard curve.

The test system of data set [6] is PI-3 Kinase signaling. Conditions: IPF-derived lung fibroblasts; cited from earlier work.
Data set [7] relates to AKT phosphorylation. In words: Western blot of TGFβ-stimulated HLF-1 fibroblasts: Akt phosphorylation. Format: cell-based, human. How it is done: as §1
(§2) Serum starved confluent HLF1 cells were co-incubated in medium containing 1 ng/ml TGFb1 with or without designate concentrations of PI3K inhibitors for 24 hours. Cells were harvested and lysed for Western blot analysis. Following sodium dodecyl sulphate polyacrylamide gel electrophoresis and blocking, membranes were incubated with antibodies to detect pSMAD2^Ser465/467 (#3101, Cell Signalling Technology), or pAkt^Ser473 (#4060, Cell signalling Technology), and signals visualized with ECL Western Blotting Detection Reagents (GE Healthcare). […]
(Immunoblotting shows a protein as a band on a membrane.)

The test system of data set [8] is Collagen 1 and αSMA expression. As to the kind of experiment: Western blot of TGFβ-stimulated HLF-1 fibroblasts: Collagen 1 and αSMA expression. The class given is cell-based, human. The conditions noted are these: 100 nM, HLF-1, TGFβ 1 ng/mL. As to the method:
as §1, §2

Data set [9] has as its system HLF-1 fibroblasts. As to the kind of experiment: MTT assay and Caspase 3 and 7 activity in HLF-1. The class given is cell-based, human. As to the method:
as §1
FIG. 18. Caspase 3 and 7 activity show PI3KI1 inhibited HLF-1 proliferation at >100 nM.
A general note: Formazan colour is commonly taken as a measure of viable cells.

Data set [10] relates to HLF-1 fibroblasts. In words: Collagen gel contraction assay. The class given is cell-based, human. Conditions: 100 nM for 12 hours. As to the method:
as §1

Molecules are shown by their SMILES.

Take `C[C@H](NC(=O)c1ccnc(CNC(=O)CCC(=O)NC(CSC2CC(=O)N(c3ccc(C4c5ccc(O)cc5OC5=CC(=O)C=CC54)c(C(=O)O)c3)C2=O)C(=O)O)c1)C(=O)N1CC(F)(F)C[C@H]1C#N` (some centres unmarked) [FAPL-FITC]: in data set [1], the “cell population recognized among cells binding a monoclonal antibody against mouse FAP” value was around 98%. For the same molecule, the “binding to hFAP-HLF1 cell line” value in [2] (confocal microscopy and flow cytometry) is “binds well with good competition”. Also, the internalization entry in data set [2] (HLF1-hFAP cells) is given as “internalized upon receptor engagement”.
With `COc1ncc(-c2ccc3nccc(-c4ccc(COC(=O)OCCSSCC(NC(=O)CCC(=O)NCc5cc(C(=O)N[C@@H](C)C(=O)N6CC(F)(F)C[C@H]6C#N)ccn5)C(=O)O)nc4)c3c2)cc1NS(=O)(=O)c1ccc(F)cc1F` (some centres unmarked) [FAPL-PI3KI1], the IC50 in [3] (HLF1-hFAP cell line, read-out: IC50 of collagen secretion/synthesis) is below 10 nM; in data set [4] (IPF patient cell lines, read-out: IC50 of collagen secretion/synthesis), below 10 nM. For the same molecule, the TGFβ-induced collagen production/secretion result is “suppresses TGFβ induced collagen secretion at low drug concentration, better than free PI3KI1 and free GSK drug OMIPALISIB” in data set [4] (listed as FAP_PI3KI1); “suppressed” in data set [4] (listed as PI3KI1-FAPL). Besides, the survival entry is given as “increased survival” in data set [5] and “increased survival rate” in data set [5] (listed as FAPL_PI3KI-SUH). The hydroxyproline/collagen in lung result in data set [5] is reported as “decreased hydroxyproline/collagen production”; in data set [5] (listed as FAPL_PI3KI-SUH), “reduction of hydroxyproline”.
Consider `COc1ncc(-c2ccc3nccc(-c4ccnnc4)c3c2)cc1NS(=O)(=O)c1ccc(F)cc1F` [OMIPALISIB], for which the “PI-3 Kinase signaling and functional responses” value in [6] was “inhibited PI-3 Kinase signaling and functional responses”.
Regarding `COc1ncc(-c2ccc3nccc(-c4ccc(CO)nc4)c3c2)cc1NS(=O)(=O)c1ccc(F)cc1F` [PI3KI1], in data set [7] (HLF-1), the “Akt phosphorylation inhibition compared with OMIPALISIB” value is given as “better than its GSK counterpart OMIPALISIB”. In addition, the IC50 in data set [7] (Homo sapiens, HLF1, HLF-1, TGF-β 1 ng/ml for 24 hr, read-out: IC50 of TGF-β induced AKT phosphorylation) was found to be 1.4 nM. Also, in [8], the “Collagen 1 and αSMA expression” value was “suppressed”. Moreover, in [9] (HLF-1), the toxicity entry is given as “does not have toxicity”. Also, the “concentration at which HLF-1 proliferation is inhibited” value in data set [9] (MTT assay and Caspase 3 and 7 activity) was above 100 nM. The collagen secretion result in data set [3] (HLF-1 cell line, TGFβ stimulated) was “suppresses collagen secretion”. In addition, the “fibroblast reorganization and contraction (collagen gel contraction)” value in data set [10] was “disrupted fibroblasts reorganization and contraction”. Also, the TGFβ-induced collagen production/secretion entry in data set [4] is reported as “suppressed”.
